# Source: patent publication US7091202B2, “4-arylspirocycloalkyl-2-aminopyrimidine carboxamide KCNQ potassium channel modulators” (Bristol-Myers Squibb Company, priority 2004, dated 2006)
# Molecular target: T1, hQ23 (HEK-293 cell line stably transfected with one of the members of the KCNQ family) (Homo sapiens, UniProt O43525+O43526)
# T1 construct: expressed in transfected cells; host or cells: HEK-293, stably transfected
# Test: Thallium flux assay for KCNQ channel blockers (FLIPR, BTC dye)
# Format: cell-based
# Conditions: hQ23 cells, thallium flux
# How it was run: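 HEK-293 cells stably expressing a KCNQ member, loaded with BTC-AM (2 μM) in chloride-free buffer, pH 7.3; compounds added at 1% DMSO, then Tl2SO4 stimulus on FLIPR (488/540 nm, 60 s). Minimal active concentration set at ≥4 SD above negative control; IC50 from 10-point 1:3 series, single-site logistic fit versus the positive-control blocker.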
# T1 sequence (O43526 whole entry): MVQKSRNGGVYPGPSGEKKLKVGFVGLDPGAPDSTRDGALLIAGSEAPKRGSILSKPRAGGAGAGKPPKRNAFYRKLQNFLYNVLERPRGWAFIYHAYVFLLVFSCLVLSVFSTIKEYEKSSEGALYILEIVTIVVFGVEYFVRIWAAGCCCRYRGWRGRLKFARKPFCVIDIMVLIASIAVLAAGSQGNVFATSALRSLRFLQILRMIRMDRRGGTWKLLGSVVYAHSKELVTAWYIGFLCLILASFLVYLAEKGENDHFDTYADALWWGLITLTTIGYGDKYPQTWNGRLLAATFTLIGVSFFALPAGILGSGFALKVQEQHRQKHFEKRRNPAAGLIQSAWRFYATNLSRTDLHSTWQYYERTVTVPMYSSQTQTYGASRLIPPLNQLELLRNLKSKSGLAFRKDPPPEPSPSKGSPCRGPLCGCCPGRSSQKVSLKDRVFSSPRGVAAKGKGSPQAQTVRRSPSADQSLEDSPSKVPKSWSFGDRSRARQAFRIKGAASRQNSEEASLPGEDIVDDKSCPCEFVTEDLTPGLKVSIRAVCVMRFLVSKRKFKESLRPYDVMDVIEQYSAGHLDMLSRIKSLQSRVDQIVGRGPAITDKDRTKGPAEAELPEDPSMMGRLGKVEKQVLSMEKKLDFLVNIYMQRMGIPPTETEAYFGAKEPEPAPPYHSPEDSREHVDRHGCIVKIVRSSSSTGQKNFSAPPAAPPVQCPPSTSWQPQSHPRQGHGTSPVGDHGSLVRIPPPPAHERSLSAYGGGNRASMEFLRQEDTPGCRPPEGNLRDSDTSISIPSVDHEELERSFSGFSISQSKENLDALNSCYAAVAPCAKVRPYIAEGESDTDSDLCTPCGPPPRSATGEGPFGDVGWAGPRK
# T1 sequence (O43525 whole entry): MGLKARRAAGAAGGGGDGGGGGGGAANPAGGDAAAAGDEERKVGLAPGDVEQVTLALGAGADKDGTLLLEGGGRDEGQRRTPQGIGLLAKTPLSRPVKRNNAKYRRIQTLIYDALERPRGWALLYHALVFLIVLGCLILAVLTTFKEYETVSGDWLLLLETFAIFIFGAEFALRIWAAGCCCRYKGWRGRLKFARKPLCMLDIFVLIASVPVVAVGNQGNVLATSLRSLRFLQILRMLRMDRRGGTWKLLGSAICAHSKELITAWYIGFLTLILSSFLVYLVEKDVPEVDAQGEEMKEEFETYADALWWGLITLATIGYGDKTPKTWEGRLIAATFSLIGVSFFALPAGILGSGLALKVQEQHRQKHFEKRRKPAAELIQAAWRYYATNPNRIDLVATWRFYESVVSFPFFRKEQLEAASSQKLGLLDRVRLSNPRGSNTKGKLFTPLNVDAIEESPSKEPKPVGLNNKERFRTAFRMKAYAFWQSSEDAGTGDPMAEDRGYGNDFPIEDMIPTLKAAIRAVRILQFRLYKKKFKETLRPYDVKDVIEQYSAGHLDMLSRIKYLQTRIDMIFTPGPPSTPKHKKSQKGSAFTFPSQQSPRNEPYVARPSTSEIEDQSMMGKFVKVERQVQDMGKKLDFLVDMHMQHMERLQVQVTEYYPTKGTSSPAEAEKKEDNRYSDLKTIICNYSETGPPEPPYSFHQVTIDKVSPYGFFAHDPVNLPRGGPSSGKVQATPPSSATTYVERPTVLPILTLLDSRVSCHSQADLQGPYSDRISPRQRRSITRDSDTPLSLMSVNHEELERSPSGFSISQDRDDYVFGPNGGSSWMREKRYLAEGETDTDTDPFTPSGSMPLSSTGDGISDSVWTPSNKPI
row,SMILES,EC50
1,"O=C(NCc1cccc2ccccc12)c1cnc(NC2CC2)nc1C1(c2ccc(Cl)cc2)CCCC1 [Example 165, 5-pyrimidinecarboxamide, 4-[1-(4-chlorophenyl)cyclopentyl]-2-(cyclopropylamino)-N-(1-naphthalenylmethyl)-]",630 nM
2,"CC1CCCN(c2ncc(C(=O)NCc3cccc4ccccc34)c(C3(c4ccc(Cl)cc4)CCCC3)n2)C1 (stereo not drawn) [Example 169, 5-pyrimidinecarboxamide, 4-[1-(4-chlorophenyl)cyclopentyl]-2-(3-methyl-1-piperidinyl)-N-(1-naphthalenylmethyl)-]",10 nM
3,"CC1CCN(c2ncc(C(=O)NCc3cccc4ccccc34)c(C3(c4ccc(Cl)cc4)CCCC3)n2)CC1 [Example 170, 5-pyrimidinecarboxamide, 4-[1-(4-chlorophenyl)cyclopentyl]-2-(4-methyl-1-piperidinyl)-N-(1-naphthalenylmethyl)-]",10 nM
4,"O=C(NCc1cccc2ccccc12)c1cnc(NC2CCCC2)nc1C1(c2ccc(Cl)cc2)CCCC1 [Example 172, 5-pyrimidinecarboxamide, 4-[1-(4-chlorophenyl)cyclopentyl]-2-(cyclopentylamino)-N-(1-naphthalenylmethyl)-]",373 nM
5,"CN1CCN(c2ncc(C(=O)NCc3ccc(Cl)c(Cl)c3)c(C3(c4ccc(Cl)cc4)CCCC3)n2)CC1 [Example 173, 5-pyrimidinecarboxamide, 4-[1-(4-chlorophenyl)cyclopentyl]-N-[(3,4-dichlorophenyl)methyl]-2-(4-methyl-1-piperazinyl)-]",820 nM
6,"CC1CCCN(c2ncc(C(=O)NCc3ccc(Cl)c(Cl)c3)c(C3(c4ccc(Cl)cc4)CCCC3)n2)C1 (stereo not drawn) [Example 174, 5-pyrimidinecarboxamide, 4-[1-(4-chlorophenyl)cyclopentyl]-N-[(3,4-dichlorophenyl)methyl]-2-(3-methyl-1-piperidinyl)-]",10 nM
7,"CC1CCN(c2ncc(C(=O)NCc3ccc(Cl)c(Cl)c3)c(C3(c4ccc(Cl)cc4)CCCC3)n2)CC1 [Example 175, 5-pyrimidinecarboxamide, 4-[1-(4-chlorophenyl)cyclopentyl]-N-[(3,4-dichlorophenyl)methyl]-2-(4-methyl-1-piperidinyl)-]",10 nM
8,"O=C(NCc1ccc(Cl)cc1Cl)c1cnc(NC2CC2)nc1C1(c2ccc(Cl)cc2)CCCC1 [Example 176, 5-pyrimidinecarboxamide, 4-[1-(4-chlorophenyl)cyclopentyl]-2-(cyclopropylamino)-N-[(2,4-dichlorophenyl)methyl]-]",196 nM
9,"CC1CCC(Nc2ncc(C(=O)NCc3ccc(Cl)cc3Cl)c(C3(c4ccc(Cl)cc4)CCCC3)n2)CC1 (stereo not drawn) [Example 177, 5-pyrimidinecarboxamide, 4-[1-(4-chlorophenyl)cyclopentyl]-N-[(2,4-dichlorophenyl)methyl]-2-[(4-methylcyclohexyl)amino]-]",55 nM
10,"O=C(NCc1ccc(Cl)cc1Cl)c1cnc(N2CCCC2)nc1C1(c2ccc(Cl)cc2)CCCC1 [Example 178, 5-pyrimidinecarboxamide, 4-[1-(4-chlorophenyl)cyclopentyl]-N-[(2,4-dichlorophenyl)methyl]-2-(1-pyrrolidinyl)-]",74 nM
11,"CN1CCN(c2ncc(C(=O)NCc3ccc(Cl)cc3Cl)c(C3(c4ccc(Cl)cc4)CCCC3)n2)CC1 [Example 179, 5-pyrimidinecarboxamide, 4-[1-(4-chlorophenyl)cyclopentyl]-N-[(2,4-dichlorophenyl)methyl]-2-(4-methyl-1-piperazinyl)-]",535 nM
12,"CC1CCCN(c2ncc(C(=O)NCc3ccc(Cl)cc3Cl)c(C3(c4ccc(Cl)cc4)CCCC3)n2)C1 (stereo not drawn) [Example 180, 5-pyrimidinecarboxamide, 4-[1-(4-chlorophenyl)cyclopentyl]-N-[(2,4-dichlorophenyl)methyl]-2-(3-methyl-1-piperidinyl)-]",10 nM
13,"CN1CCC(N(C)c2ncc(C(=O)NCc3ccc(Cl)cc3Cl)c(C3(c4ccc(Cl)cc4)CCCC3)n2)CC1 [Example 182, 5-pyrimidinecarboxamide, 4-[1-(4-chlorophenyl)cyclopentyl]-N-[(2,4-dichlorophenyl)methyl]-2-[methyl(1-methyl-4-piperidinyl)amino]-]",67 nM
14,"CC1CCC(Nc2ncc(C(=O)NCc3cc(F)cc(C(F)(F)F)c3)c(C3(c4ccc(Cl)cc4)CCCC3)n2)CC1 (stereo not drawn) [Example 190, 5-pyrimidinecarboxamide, 4-[1-(4-chlorophenyl)cyclopentyl]-N-[[3-fluoro-5-(trifluoromethyl)phenyl]methyl]-2-[(4-methylcyclohexyl)amino]-]",163 nM
15,"O=C(NCc1cc(F)cc(C(F)(F)F)c1)c1cnc(N2CCCC2)nc1C1(c2ccc(Cl)cc2)CCCC1 [Example 191, 5-pyrimidinecarboxamide, 4-[1-(4-chlorophenyl)cyclopentyl]-N-[[3-fluoro-5-(trifluoromethyl)phenyl]methyl]-2-(1-pyrrolidinyl)-]",32 nM
16,"CC1CCCN(c2ncc(C(=O)NCc3cc(F)cc(C(F)(F)F)c3)c(C3(c4ccc(Cl)cc4)CCCC3)n2)C1 (stereo not drawn) [Example 192, 5-pyrimidinecarboxamide, 4-[1-(4-chlorophenyl)cyclopentyl]-N-[[3-fluoro-5-(trifluoromethyl)phenyl]methyl]-2-(3-methyl-1-piperidinyl)-]",10 nM
17,"CC1CCN(c2ncc(C(=O)NCc3cc(F)cc(C(F)(F)F)c3)c(C3(c4ccc(Cl)cc4)CCCC3)n2)CC1 [Example 193, 5-pyrimidinecarboxamide, 4-[1-(4-chlorophenyl)cyclopentyl]-N-[[3-fluoro-5-(trifluoromethyl)phenyl]methyl]-2-(4-methyl-1-piperidinyl)-]",12 nM

# More lines, in order of falling EC50, values ahead:
row,EC50,SMILES
1,709 nM,"CN(C)CCNc1ncc(C(=O)NCc2ccc(Cl)cc2Cl)c(C2(c3ccc(Cl)cc3)CCCC2)n1 [Example 184, 5-pyrimidinecarboxamide, 4-[1-(4-chlorophenyl)cyclopentyl]-N-[(2,4-dichlorophenyl)methyl]-2-[[2-(dimethylamino)ethyl]amino]-]"
2,497 nM,"CN1CCN(c2ncc(C(=O)NCc3cccc4ccccc34)c(C3(c4ccc(Cl)cc4)CCCC3)n2)CC1 [Example 168, 5-pyrimidinecarboxamide, 4-[1-(4-chlorophenyl)cyclopentyl]-2-(4-methyl-1-piperazinyl)-N-(1-naphthalenylmethyl)-]"
3,340 nM,"O=C(NCc1ccc(F)cc1F)c1cnc(NC2CCCC2)nc1C1(c2ccc(Cl)cc2)CCCC1 [Example 189, 5-pyrimidinecarboxamide, 4-[1-(4-chlorophenyl)cyclopentyl]-2-(cyclopentylamino)-N-[(2,4-difluorophenyl)methyl]-]"
4,158 nM,"CCC(C)Nc1ncc(C(=O)NCc2cccc3ccccc23)c(C2(c3ccc(Cl)cc3)CCCC2)n1 (stereo not drawn) [Example 171, 5-pyrimidinecarboxamide, 4-[1-(4-chlorophenyl)cyclopentyl]-2-[(1-methylpropyl)amino]-N-(1-naphthalenylmethyl)-]"
5,142 nM,"O=C(NCc1cccc2ccccc12)c1cnc(N2CCCC2)nc1C1(c2ccc(Cl)cc2)CCCC1 [Example 167, 5-pyrimidinecarboxamide, 4-[1-(4-chlorophenyl)cyclopentyl]-N-(1-naphthalenylmethyl)-2-(1-pyrrolidinyl)-]"
6,130 nM,"CN1CCC(N(C)c2ncc(C(=O)NCc3cc(F)cc(C(F)(F)F)c3)c(C3(c4ccc(Cl)cc4)CCCC3)n2)CC1 [Example 194, 5-pyrimidinecarboxamide, 4-[1-(4-chlorophenyl)cyclopentyl]-N-[[3-fluoro-5-(trifluoromethyl)phenyl]methyl]-2-[methyl(1-methyl-4-piperidinyl)amino]-]"
7,128 nM,"CC1CCC(Nc2ncc(C(=O)NCc3ccc(F)cc3F)c(C3(c4ccc(Cl)cc4)CCCC3)n2)CC1 (stereo not drawn) [Example 186, 5-pyrimidinecarboxamide, 4-[1-(4-chlorophenyl)cyclopentyl]-N-[(2,4-difluorophenyl)methyl]-2-[(4-methylcyclohexyl)amino]-]"
8,95 nM,"CC1CCCN(c2ncc(C(=O)NCc3ccc(F)cc3F)c(C3(c4ccc(Cl)cc4)CCCC3)n2)C1 (stereo not drawn) [Example 187, 5-pyrimidinecarboxamide, 4-[1-(4-chlorophenyl)cyclopentyl]-N-[(2,4-difluorophenyl)methyl]-2-(3-methyl-1-piperidinyl)-]"
9,16 nM,"CC1CCC(Nc2ncc(C(=O)NCc3cccc4ccccc34)c(C3(c4ccc(Cl)cc4)CCCC3)n2)CC1 (stereo not drawn) [Example 166, 5-pyrimidinecarboxamide, 4-[1-(4-chlorophenyl)cyclopentyl]-2-[(4-methylcyclohexyl)amino]-N-(1-naphthalenylmethyl)-]"
10,16 nM,"CC1CCN(c2ncc(C(=O)NCc3ccc(F)cc3F)c(C3(c4ccc(Cl)cc4)CCCC3)n2)CC1 [Example 188, 5-pyrimidinecarboxamide, 4-[1-(4-chlorophenyl)cyclopentyl]-N-[(2,4-difluorophenyl)methyl]-2-(4-methyl-1-piperidinyl)-]"
11,10 nM,"CC(NC(=O)c1cnc(NC2CCCC2)nc1C1(c2ccc(Cl)cc2)CCCC1)c1cccc2ccccc12 (stereo not drawn) [Example 164, 5-pyrimidinecarboxamide, 4-[1-(4-chlorophenyl)cyclopentyl]-2-(cyclopentylamino)-N-[1-(1-naphthalenyl)ethyl]-]"
12,10 nM,"CCC(C)Nc1ncc(C(=O)NCc2ccc(Cl)cc2Cl)c(C2(c3ccc(Cl)cc3)CCCC2)n1 (stereo not drawn) [Example 183, 5-pyrimidinecarboxamide, 4-[1-(4-chlorophenyl)cyclopentyl]-N-[(2,4-dichlorophenyl)methyl]-2-[(1-methylpropyl)amino]-]"
13,10 nM,"O=C(NCc1ccc(Cl)cc1Cl)c1cnc(NC2CCCC2)nc1C1(c2ccc(Cl)cc2)CCCC1 [Example 185, 5-pyrimidinecarboxamide, 4-[1-(4-chlorophenyl)cyclopentyl]-2-(cyclopentylamino)-N-[(2,4-dichlorophenyl)methyl]-]"
